Laboratory results taken from US7473711B2, “Androgen modulators” (Pfizer Inc., priority 2004, dated 2009).

Test system: sebum production
Assay: Animal model for inhibition of sebum production (hamster ear, HPLC of sebum lipids)
Type: in vivo, male Syrian hamsters
Conditions: 4 weeks; for Sum CE + WE: sum of CE and WE reductions; for % Reduction in CE / % Reduction in WE: five days a week; for % Reduction in CE: cholesterol ester vs vehicle control; for % Reduction in WE: wax ester vs vehicle control
Description: Animal Model for Inhibition of Sebum Production
Luderschmidt et al describes an animal model for testing whether compounds are capable of modulating sebum secretion. Arch. Derm. Res. 258, 185-191 (1977). This model uses male Syrian hamsters, whose ears contain sebaceous glands. The products of Examples 24, 27 and 28 were screened in this model.
Testing for sebum inhibition was carried out in the following manner. Male Syrian hamsters aged 9 to 10 weeks were introduced into the laboratory environment and acclimated for 2 weeks prior to use in the study. Each group consisted of 5 animals and run in parallel with vehicle and positive controls. Prior to administration, a sufficient quantity each compound was dissolved in 1 mL of a solvent consisting of transcutanol, ethanol, and propylene glycol (20/60/20% v/v) to achieve a final concentration of 0.5 w/v % or 3.0 w/v %.
Animals were dosed topically twice daily, five days a week, for 4 weeks. Each dose consisted of 25 micro liters of vehicle control or drug. The dose was applied to the ventral surfaces of both the right and left ears. All animals were sacrificed approximately 18-24 hours after the final dose. The right ears were collected from each animal and used for sebum analysis.
The ears were prepped for HPLC analysis in the following manner. One 8 mm distal biopsy punch was taken, just above the anatomical “V” mark in the ear to normalize the sample area. The punch was pulled apart. The ventral biopsy surface (the area where the topical dose was directly applied to the sebaceous glands) was retained for testing and the dorsal surface of the biopsy punch was discarded.
Tissue samples were blown with N2 gas and stored at −80° C. under nitrogen until HPLC analysis. In addition to ear samples, an aliquot of each drug and vehicle (at least 250 ul) was also stored at −80° C. for inclusion in the HPLC analysis.
HPLC analysis was carried out on an extract of the tissue sample. Tissue samples were contacted with 3 ml of solvent (a 4:1 admixture of 2,2,4-trimethylpentane and isopropyl alcohol). The mixture was shaken for 15 minutes and stored overnight at room temperature, protected from light. The next morning 1 milliliter of water was added to the sample and shaken for 15 minutes. The sample was then centrifuged at approximately 1500 rpm for 15 minutes. Two ml of the organic phase (top layer) was transferred to a glass vial, dried at 37° C., under nitrogen, for approximately 1 hour, and then lyophilized for approximately 48 hours. The samples were then removed from the lyophilizer and each vial was reconstituted with 600 μl of solvent A (trimethylpentane/tetrahydrofuran (99:1). The samples were then recapped and vortexed for 5 minutes.
200 μl of each sample was then transferred to a pre-labeled 200 μl HPLC vial with 200 μL glass inserts. The HPLC vials were placed in the autosampler tray for the Agilent 1100 series HPLC unit. The Agilent 1100 HPLC system consisted of a thermostated autosampler, a quarternary pump, a column heater, and an A/D interface module. All components were controlled by Agilent ChemStation software. A Waters Spherisorb S3W 4.6×100 mm analytical column was maintained at 30° C. by the Agilent column heater unit. The HPLC autosampler was programmed to maintain the sample temperature at 20 C throughout the run.
10 uL of each sample was injected in triplicate into the column. Two solvents were used for the solvent gradient. Solvent A was an admixture of trimethylpentane and tetrahydrofuran (99:1). Solvent B was ethylacetate. The gradient utilized is described in the table below: […]
The Sedex 75 Evaporative Light Scattering Detector (ELSD) was operated at 45° C. with a gain of 5, and N2 pressure maintained at 3.1 bar. Analog signal obtained by the instrument was sent to the Agilent A/D interface module where it was converted to a digital output. The conversion was based on a 10000 mAU/volt set point and the data rate was set at 10 Hz (0.03 min). […]

[1] = 0.5 w/v % topical twice daily, negative = increase in sebum

SMILES | Sum CE + WE (3 w/v % topical twice daily) | % Reduction in CE (3 w/v % topical twice daily) | % Reduction in WE (3 w/v % topical twice daily) | Sum CE + WE (0.5 w/v % topical twice daily) | % Reduction in CE [1] | % Reduction in WE [1]
COCC(COc1ccccc1)Oc1ccc(C#N)c(C(F)(F)F)c1 (stereo not drawn) [Example 27, 4-(1-Methoxymethyl-2-phenoxy-ethoxy)-2-trifluoromethyl-benzonitrile] | 147 | 63% | 84% | – | – | –
N#Cc1ccc(OC(CO)COc2ccccc2)cc1C(F)(F)F (stereo not drawn) [Example 28, 4-(1-Hydroxymethyl-2-phenoxy-ethoxy)-2-trifluoromethyl-benzonitrile] | 40 | 11% | 19% | – | – | –
N#Cc1ccc(OCCCCCOc2ccc(C#N)c(C(F)(F)F)c2)cc1C(F)(F)F [Example 24] | – | – | – | −74 | −33% | −41%
